In PMC6478789, “A chemical toolbox for the study of bromodomains and epigenetic signaling” (Nature Communications, 2019):

How the values were obtained:
MYST3 = MYST3 (Homo sapiens, UniProt Q92794); test: Histone acetyltransferase (HAT) activity assay; type: biochemical;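 note: selectivity screen of bromodomain probe compounds across a panel of histone acetyltransferases, read out as enzyme activity in %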
BRD4(2) = BRD4(2) (Homo sapiens, UniProt O60885); test: BROMOscan ligand-binding assay; conditions: read-out: KD (BROMOscan); sheet prints no unit (nM)
Source text: (§1) BROMOscan is a binding assay based on the well-known KINOMEscan technology. This assay measures the binding of a DNA-tagged bromodomain to an immobilized BRD ligand. If an inhibitor is present, it will compete with the bromodomain binding to the immobilized ligand, resulting in reduction of a quantitative PCR (qPCR) signal in a dose-dependent manner.

ATAD2B = target: T1, ATAD2B (Homo sapiens, UniProt Q9ULI0); test: BROMOscan ligand-binding assay; conditions: read-out: KD (BROMOscan); sheet prints no unit (nM)
T1 sequence (Q9ULI0 951-1066 limits assumed): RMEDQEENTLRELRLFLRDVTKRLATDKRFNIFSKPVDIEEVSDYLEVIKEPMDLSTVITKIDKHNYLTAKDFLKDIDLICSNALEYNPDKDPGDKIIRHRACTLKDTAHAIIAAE
Source text: as §1

BRD3(1) = BRD3(1) (Homo sapiens, UniProt Q15059); test: BROMOscan ligand-binding assay; conditions: read-out: KD (BROMOscan); sheet prints no unit (nM)
Sequence of BRD3(1) (Q15059 34-140 limits assumed): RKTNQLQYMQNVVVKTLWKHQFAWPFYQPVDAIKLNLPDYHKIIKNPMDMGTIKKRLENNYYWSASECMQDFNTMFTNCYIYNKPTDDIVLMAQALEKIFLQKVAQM
Source text: as §1

MDA-MB-436 cells = test: Confluency with BRPF inhibitors and BAY-876; type: cell-based, human; conditions: 3 μM, 7 days
Protocol: Graph indicates mean, error bars denote s.d. from eight wells (from two independent assays) and p-value was computed using the Benjamini-Hochberg t test; ***p < 0.001. d Immunoblot validation of BRPF knockdown in MDA-MB-436 cells. e Quantitative real-time PCR (RT-qPCR) validation of BRPF knockdown in MDA-MB-436 cells. […] Raw data images are available in Supplementary Fig. 4
TNBC cell lines were seeded in sterile, transparent 384-well plates at 500 cells per well in 50 µl media. Chemical probes were delivered in dimethyl sulfoxide (DMSO). Cell confluency at 7 days was evaluated using an Incucyte ZOOM live cell imaging device (Essen Bioscence) and analyzed with the Incucyte ZOOM (2016A) software based on phase contrast image.

BRD1 = target: T2, BRD1 (Homo sapiens, UniProt O95696); test: BROMOscan ligand-binding assay; conditions: read-out: KD (BROMOscan); sheet prints no unit (nM)
T2 sequence (O95696 562-666 limits assumed): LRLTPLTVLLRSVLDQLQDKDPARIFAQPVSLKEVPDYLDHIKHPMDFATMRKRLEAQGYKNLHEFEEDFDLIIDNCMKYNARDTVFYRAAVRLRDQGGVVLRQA
Source text: as §1

BRD4(1,2) = BRD4(1,2) (Homo sapiens, UniProt O60885); test: BROMOscan ligand-binding assay; conditions: read-out: KD (BROMOscan); sheet prints no unit (nM)
Source text: as §1

BRD9 = conditions: ITC data; ref 11 (suppl.); read-out: KD (nM), off target BRD9; cited from earlier work
BRD3(2) = BRD3(2) (Homo sapiens, UniProt Q15059); test: BROMOscan ligand-binding assay; conditions: read-out: KD (BROMOscan); sheet prints no unit (nM)
Sequence of BRD3(2) (Q15059 306-415 limits assumed): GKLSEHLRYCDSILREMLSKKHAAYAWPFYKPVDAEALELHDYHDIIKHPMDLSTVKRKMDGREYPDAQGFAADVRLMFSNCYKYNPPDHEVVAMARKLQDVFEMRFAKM
Source text: as §1

HAT1 = target: T3, HAT1 (Homo sapiens, UniProt O14929); test: Histone acetyltransferase (HAT) activity assay; type: biochemical;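 note: HAT selectivity screen of BRD probe compounds, enzyme activity in % measured with compound at 1 µM and 10 µM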
T3 sequence (O14929 1-419): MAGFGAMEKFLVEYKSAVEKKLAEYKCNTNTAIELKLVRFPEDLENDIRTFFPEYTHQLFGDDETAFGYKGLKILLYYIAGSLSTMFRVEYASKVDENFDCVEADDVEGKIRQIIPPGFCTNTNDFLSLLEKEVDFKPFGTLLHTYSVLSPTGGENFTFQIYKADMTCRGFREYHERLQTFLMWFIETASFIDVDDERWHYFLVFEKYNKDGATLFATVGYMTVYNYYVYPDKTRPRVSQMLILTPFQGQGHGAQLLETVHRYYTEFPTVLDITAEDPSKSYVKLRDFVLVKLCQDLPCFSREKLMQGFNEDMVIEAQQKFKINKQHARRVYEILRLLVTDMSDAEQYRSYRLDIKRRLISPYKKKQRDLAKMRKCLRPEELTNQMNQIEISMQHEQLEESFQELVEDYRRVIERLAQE

TAF1(2) = target: T4, TAF1(2) (Homo sapiens, UniProt P21675); test: BROMOscan ligand-binding assay; conditions: read-out: KD (BROMOscan); sheet prints no unit (nM)
T4 sequence (P21675 1519-1628 limits assumed): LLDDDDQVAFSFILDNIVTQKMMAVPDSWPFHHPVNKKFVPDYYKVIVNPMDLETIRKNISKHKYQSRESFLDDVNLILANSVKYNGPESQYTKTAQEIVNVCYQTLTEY
Source text: as §1

BRD2(1,2) = BRD2(1,2) (Homo sapiens, UniProt P25440); test: BROMOscan ligand-binding assay; conditions: read-out: KD (BROMOscan); sheet prints no unit (nM)
Sequence of BRD2(1,2) (P25440 71-455 limits assumed): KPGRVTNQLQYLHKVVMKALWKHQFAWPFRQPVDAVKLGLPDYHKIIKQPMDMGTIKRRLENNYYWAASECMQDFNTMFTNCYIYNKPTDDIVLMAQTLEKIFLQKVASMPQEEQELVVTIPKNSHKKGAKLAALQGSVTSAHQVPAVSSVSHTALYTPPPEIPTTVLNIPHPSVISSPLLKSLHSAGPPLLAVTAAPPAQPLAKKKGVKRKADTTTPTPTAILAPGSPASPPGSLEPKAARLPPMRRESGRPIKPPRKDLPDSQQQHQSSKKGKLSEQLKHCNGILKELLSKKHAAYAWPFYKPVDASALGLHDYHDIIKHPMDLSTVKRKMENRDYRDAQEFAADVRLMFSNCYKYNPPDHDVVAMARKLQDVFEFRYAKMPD
Source text: as §1

BAZ2B = target: T5, BAZ2B (Homo sapiens, UniProt Q9UIF8); test: BROMOscan ligand-binding assay; conditions: read-out: KD (BROMOscan); sheet prints no unit (nM)
T5 sequence (Q9UIF8 2060-2164 limits assumed): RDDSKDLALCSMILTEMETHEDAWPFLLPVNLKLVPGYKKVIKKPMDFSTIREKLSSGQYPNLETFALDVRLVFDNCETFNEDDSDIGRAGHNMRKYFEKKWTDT
Source text: as §1

MYST1 = target: T6, MYST1 (Homo sapiens, UniProt Q9H7Z6); test: Histone acetyltransferase (HAT) activity assay; type: biochemical;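 note: selectivity screen across a panel of histone acetyltransferases, with compounds tested at 1 and 10 µM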
T6 sequence (Q9H7Z6 1-458): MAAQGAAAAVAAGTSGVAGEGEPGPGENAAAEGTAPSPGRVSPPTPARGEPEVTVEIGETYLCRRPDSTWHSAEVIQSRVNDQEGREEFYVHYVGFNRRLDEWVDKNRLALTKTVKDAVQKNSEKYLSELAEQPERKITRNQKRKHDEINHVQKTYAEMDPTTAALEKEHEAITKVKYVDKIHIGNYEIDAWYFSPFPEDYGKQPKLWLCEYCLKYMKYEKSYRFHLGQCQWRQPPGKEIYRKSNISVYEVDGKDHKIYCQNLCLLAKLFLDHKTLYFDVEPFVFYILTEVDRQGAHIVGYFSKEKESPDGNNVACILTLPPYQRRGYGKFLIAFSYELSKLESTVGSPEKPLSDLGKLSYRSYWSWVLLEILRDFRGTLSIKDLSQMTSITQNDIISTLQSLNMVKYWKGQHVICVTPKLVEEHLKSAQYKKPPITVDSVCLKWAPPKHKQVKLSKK

ATAD2A = target: T7, ATAD2A (Homo sapiens, UniProt Q6PL18); test: BROMOscan ligand-binding assay; conditions: read-out: KD (BROMOscan); sheet prints no unit (nM)
T7 sequence (Q6PL18 980-1092 limits assumed): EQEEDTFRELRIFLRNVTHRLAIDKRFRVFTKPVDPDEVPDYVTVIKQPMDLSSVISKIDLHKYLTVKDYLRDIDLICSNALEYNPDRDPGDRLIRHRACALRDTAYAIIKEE
Source text: as §1

EP300 = EP300 (Homo sapiens, UniProt Q09472); test: Histone acetyltransferase (HAT) activity assay; type: biochemical;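 note: selectivity screen of bromodomain probe compounds against histone acetyltransferases, with enzyme activity given in percent for compounds tested at 1 and 10 µM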
GCN5L2 = GCN5L2 (Homo sapiens, UniProt Q92830); test: Histone acetyltransferase (HAT) activity assay; type: biochemical;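 note: selectivity screen of BRD probe compounds across a panel of histone acetyltransferases, HAT activity in % with compound at 1 or 10 µM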
Sequence of GCN5L2 (Q92830 whole entry, species assumed): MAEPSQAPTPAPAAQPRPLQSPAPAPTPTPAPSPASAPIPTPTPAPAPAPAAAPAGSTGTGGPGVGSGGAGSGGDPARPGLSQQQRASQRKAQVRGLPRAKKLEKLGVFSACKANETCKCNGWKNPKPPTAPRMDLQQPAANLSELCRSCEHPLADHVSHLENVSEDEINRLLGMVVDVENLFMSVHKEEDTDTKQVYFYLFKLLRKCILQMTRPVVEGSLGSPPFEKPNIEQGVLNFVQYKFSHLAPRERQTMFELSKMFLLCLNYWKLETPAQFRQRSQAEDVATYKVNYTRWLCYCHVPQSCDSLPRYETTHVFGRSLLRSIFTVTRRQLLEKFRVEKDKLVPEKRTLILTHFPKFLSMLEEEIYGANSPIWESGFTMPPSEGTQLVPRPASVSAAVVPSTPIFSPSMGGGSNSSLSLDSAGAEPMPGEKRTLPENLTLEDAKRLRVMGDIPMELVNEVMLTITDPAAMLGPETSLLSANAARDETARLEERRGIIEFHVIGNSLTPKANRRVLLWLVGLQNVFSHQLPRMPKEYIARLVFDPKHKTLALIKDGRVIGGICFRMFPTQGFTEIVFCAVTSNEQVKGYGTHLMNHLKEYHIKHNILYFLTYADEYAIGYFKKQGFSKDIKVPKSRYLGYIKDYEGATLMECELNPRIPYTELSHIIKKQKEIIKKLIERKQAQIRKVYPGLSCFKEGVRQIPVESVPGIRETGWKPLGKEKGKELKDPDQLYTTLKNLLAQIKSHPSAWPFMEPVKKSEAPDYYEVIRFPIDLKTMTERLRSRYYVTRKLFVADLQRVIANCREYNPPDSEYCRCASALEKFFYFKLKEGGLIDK

BRD2(2) = BRD2(2) (Homo sapiens, UniProt P25440); test: BROMOscan ligand-binding assay; conditions: read-out: KD (BROMOscan); sheet prints no unit (nM)
Sequence of BRD2(2) (P25440 344-453 limits assumed): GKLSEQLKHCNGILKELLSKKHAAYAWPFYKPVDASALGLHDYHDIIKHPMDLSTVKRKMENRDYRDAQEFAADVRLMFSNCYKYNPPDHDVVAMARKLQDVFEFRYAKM
Source text: as §1

BRPF2 = conditions: ITC data; ref 11 (suppl.); cited from earlier work
BRD4(1) = BRD4(1) (Homo sapiens, UniProt O60885); test: BROMOscan ligand-binding assay; conditions: read-out: KD (BROMOscan); sheet prints no unit (nM)
Source text: as §1

BRD3(1,2) = BRD3(1,2) (Homo sapiens, UniProt Q15059); test: BROMOscan ligand-binding assay; conditions: read-out: KD (BROMOscan); sheet prints no unit (nM)
Sequence of BRD3(1,2) (Q15059 24-416 limits assumed): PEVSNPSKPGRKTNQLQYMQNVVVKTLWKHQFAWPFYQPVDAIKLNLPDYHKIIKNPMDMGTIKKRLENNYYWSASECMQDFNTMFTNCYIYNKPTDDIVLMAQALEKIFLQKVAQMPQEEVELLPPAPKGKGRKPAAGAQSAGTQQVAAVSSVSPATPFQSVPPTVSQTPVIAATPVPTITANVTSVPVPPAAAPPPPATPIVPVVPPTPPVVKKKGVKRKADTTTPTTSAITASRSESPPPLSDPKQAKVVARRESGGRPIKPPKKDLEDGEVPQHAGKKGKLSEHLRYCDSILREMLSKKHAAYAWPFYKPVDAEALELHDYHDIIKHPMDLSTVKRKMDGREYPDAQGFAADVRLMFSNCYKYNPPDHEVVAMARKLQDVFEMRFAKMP
Source text: as §1

BRD2(1) = BRD2(1) (Homo sapiens, UniProt P25440); test: BROMOscan ligand-binding assay; conditions: read-out: KD (BROMOscan); sheet prints no unit (nM)
Sequence of BRD2(1) (P25440 74-180 limits assumed): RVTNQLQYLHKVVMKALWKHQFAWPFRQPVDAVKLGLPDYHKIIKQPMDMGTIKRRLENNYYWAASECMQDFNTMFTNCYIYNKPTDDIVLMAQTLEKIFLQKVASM
Source text: as §1

BRPF1B = conditions: ITC data; ref 11 (suppl.); cited from earlier work

Sequence of MYST3 (Q92794 whole entry, species assumed): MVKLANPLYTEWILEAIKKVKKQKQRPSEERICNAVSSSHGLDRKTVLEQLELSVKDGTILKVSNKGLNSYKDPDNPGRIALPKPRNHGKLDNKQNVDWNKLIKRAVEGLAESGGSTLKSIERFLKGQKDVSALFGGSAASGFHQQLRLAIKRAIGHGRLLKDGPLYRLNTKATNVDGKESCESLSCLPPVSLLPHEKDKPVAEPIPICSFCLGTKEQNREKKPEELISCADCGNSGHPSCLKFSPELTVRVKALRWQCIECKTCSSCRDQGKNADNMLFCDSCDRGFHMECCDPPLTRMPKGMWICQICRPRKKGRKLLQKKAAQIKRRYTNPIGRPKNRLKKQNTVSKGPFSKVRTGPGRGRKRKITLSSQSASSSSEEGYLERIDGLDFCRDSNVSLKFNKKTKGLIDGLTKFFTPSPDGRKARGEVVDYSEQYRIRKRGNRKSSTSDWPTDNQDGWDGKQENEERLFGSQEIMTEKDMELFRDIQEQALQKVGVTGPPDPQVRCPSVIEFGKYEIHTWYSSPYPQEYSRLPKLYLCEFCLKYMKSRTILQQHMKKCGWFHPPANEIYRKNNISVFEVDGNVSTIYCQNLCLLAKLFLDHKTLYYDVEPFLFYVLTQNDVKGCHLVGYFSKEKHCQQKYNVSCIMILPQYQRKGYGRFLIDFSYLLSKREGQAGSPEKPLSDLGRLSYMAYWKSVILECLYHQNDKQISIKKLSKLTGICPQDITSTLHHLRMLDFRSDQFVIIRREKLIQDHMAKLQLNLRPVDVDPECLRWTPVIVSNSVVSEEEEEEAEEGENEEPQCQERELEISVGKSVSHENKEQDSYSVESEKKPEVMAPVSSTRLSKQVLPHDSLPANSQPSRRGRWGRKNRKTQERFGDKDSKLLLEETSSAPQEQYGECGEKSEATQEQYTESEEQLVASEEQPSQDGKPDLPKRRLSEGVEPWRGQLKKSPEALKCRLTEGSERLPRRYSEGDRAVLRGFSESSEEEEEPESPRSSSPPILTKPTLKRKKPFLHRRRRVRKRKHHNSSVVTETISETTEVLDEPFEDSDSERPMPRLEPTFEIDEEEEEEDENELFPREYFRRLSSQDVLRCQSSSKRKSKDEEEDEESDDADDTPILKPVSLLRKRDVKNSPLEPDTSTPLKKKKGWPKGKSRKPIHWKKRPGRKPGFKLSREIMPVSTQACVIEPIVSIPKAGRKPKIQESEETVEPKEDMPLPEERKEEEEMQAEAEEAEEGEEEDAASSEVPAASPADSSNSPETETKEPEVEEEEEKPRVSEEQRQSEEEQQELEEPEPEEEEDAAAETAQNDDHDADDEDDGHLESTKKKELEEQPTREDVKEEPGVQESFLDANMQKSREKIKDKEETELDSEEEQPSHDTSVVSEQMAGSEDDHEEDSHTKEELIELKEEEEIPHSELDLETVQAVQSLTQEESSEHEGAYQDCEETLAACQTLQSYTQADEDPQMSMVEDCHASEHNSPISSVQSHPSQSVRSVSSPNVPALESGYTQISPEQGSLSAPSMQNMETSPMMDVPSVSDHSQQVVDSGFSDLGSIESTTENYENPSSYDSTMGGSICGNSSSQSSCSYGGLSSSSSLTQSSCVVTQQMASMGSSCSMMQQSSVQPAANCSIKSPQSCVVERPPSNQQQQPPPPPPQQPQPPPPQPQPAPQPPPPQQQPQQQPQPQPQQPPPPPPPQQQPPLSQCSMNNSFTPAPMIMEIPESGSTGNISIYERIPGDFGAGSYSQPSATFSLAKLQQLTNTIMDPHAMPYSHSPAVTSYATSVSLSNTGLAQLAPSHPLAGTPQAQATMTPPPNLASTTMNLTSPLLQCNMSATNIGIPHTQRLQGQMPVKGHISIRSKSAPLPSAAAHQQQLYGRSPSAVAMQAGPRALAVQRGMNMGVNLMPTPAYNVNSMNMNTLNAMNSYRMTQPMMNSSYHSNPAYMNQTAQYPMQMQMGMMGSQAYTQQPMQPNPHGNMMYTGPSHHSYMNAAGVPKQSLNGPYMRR

Which “HATs Activity (%)” value (MYST3; 1µM) does the source give for COc1cc(C#N)ccc1S(=O)(=O)Nc1ccc2c(c1)cc(C)c(=O)n2C [NIC57] here?
Its value is 98%.

What about the “HATs Activity (%)” value (MYST3; 10µM) of the same molecule?
Its value is 99%.

And the Kd (BRD4(2))?
The Kd was over 30000 nM.

What about the Kd (ATAD2B) of the same molecule?
Its Kd is over 30000 nM.

And the Kd (BRD3(1))?
Its Kd is 7200 nM.

What about the “synergy with BAY-876” value (MDA-MB-436 cells) of the same molecule?
Its value is “no synergy”.

What about the Kd (BRD1) of the same molecule?
Its Kd is 46 nM.

And the Kd (BRD4(1,2))?
Its Kd is 15000 nM.

And the Kd (BRD9)?
Its Kd is 998 nM.

And the Kd (BRD3(2))?
Its Kd is over 30000 nM.

What about the “HATs Activity (%)” value (HAT1; 1µM) of the same molecule?
The value was 104%.

What about the “HATs Activity (%)” value (HAT1; 10µM) of the same molecule?
The value was 104%.

What about the Kd (TAF1(2)) of the same molecule?
The Kd was 4900 nM.

What about the Kd (BRD2(1,2)) of the same molecule?
Its Kd is 12000 nM.

And the Kd (BAZ2B)?
Its Kd is 9400 nM.

What about the “HATs Activity (%)” value (MYST1; 1µM) of the same molecule?
The value was 96%.

And the “HATs Activity (%)” value (MYST1; 10µM)?
Its value is 91%.

What about the Kd (ATAD2A) of the same molecule?
Its Kd is over 30000 nM.

And the “HATs Activity (%)” value (EP300; 1µM)?
Its value is 94%.

What about the “HATs Activity (%)” value (EP300; 10µM) of the same molecule?
The value was 93%.

And the “HATs Activity (%)” value (GCN5L2; 1µM)?
The value was 100%.

What about the “HATs Activity (%)” value (GCN5L2; 10µM) of the same molecule?
The value was 96%.

And the Kd (BRD2(2))?
Its Kd is over 30000 nM.

What about the Kd (BRPF2) of the same molecule?
The Kd was 108 nM.

What about the Kd (BRD4(1)) of the same molecule?
Its Kd is 3300 nM.

And the Kd (BRD3(1,2))?
The Kd was 12000 nM.

What about the Kd (BRD2(1)) of the same molecule?
The Kd was 5900 nM.

What about the Kd (BRPF1B) of the same molecule?
The Kd was 31 nM.

Which “synergy with BAY-876” value (MDA-MB-436 cells) does the source give for COc1ccccc1C(=O)Nc1cc2c(cc1N1CCCC1)n(C)c(=O)n2C [PFI-4] here?
Its value is “no significant effect”.
